{"source": "patent US20250230193A1", "about": "“CYCLIC COMPOUND HAVING SELECTIVE KRAS INHIBITORY EFFECT ON HRAS AND NRAS” (CHUGAI SEIYAKU KABUSHIKI KAISHA, priority 2022, published 2025)", "key": {"[1]": {"target": "GDP-bound NRAS wild-type protein (Homo sapiens, UniProt P01111)", "sequence (P01111 whole entry)": "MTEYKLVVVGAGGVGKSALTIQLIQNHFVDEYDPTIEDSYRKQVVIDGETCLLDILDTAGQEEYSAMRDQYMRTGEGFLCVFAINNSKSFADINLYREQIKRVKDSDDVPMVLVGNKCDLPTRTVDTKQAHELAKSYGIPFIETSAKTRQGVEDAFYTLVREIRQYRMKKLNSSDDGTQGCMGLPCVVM", "assay": "Binding to NRAS by surface plasmon resonance (SPR), Single Cycle Kinetics"}, "[2]": {"target": "GDP-bound HRAS wild-type protein (Homo sapiens, UniProt P01112)", "sequence (P01112 whole entry)": "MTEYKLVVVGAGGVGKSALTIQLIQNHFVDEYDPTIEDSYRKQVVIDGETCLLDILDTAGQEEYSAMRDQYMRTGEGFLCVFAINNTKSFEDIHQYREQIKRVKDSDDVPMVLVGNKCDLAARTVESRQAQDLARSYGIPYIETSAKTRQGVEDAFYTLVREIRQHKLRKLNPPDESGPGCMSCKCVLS", "assay": "Binding to HRAS by surface plasmon resonance (SPR), Single Cycle Kinetics"}, "[3]": {"conditions": "KD ratio, GDP-bound NRAS wild-type vs GDP-bound KRAS wild-type, SPR"}, "[4]": {"conditions": "KD ratio, GDP-bound HRAS wild-type vs GDP-bound KRAS wild-type, SPR"}}, "note": "*1 amine or outer side, *2 acyl side, *3 side chain or, on linkers, in order; H or OH if unused. Where a SMILES comes first, the peptide text is derived from it. Bridges are numbered along the chain shown (N, C = ends). [ ]: non-standard residue; d: D form. The star is where a group is joined. hPhe(3,5-F2-4-CF3) = N[C@@H](CCc1cc(F)c(C(F)(F)F)c(F)c1)C(=O)O; hPhe(3-Cl-4-CF3) = N[C@@H](CCc1ccc(C(F)(F)F)c(Cl)c1)C(=O)O; X42 = COCCCN([C@@H](Cc1ccc(C(F)(F)F)cc1)C(=O)[*:2])[*:1]; NPrPhe(4-CF3) = CCCN[C@@H](Cc1ccc(C(F)(F)F)cc1)C(=O)O; NMeGly(cPent) = CN[C@H](C(=O)O)C1CCCC1; NMeD = CN[C@@H](CC(=O)O)C(=O)O; NMeL = CN[C@@H](CC(C)C)C(=O)O; αMeV = CC(C)[C@](C)(N)C(=O)O; Morpholide = C1CN(*)CCO1; Ac5c = NC1(C(=O)O)CCCC1; Aze = O=C(O)[C@@H]1CCN1; Sar = CNCC(=O)O"}
{"smiles": "CCCN1C(=O)[C@@H]2CCN2C(=O)CN(C)C(=O)[C@H]([C@@H](C)CC)NC(=O)[C@H](CC(C)C)N(C)C(=O)C[C@@H](C(=O)N2CCOCC2)N(C)C(=O)[C@H](C2CCCC2)N(C)C(=O)[C@](C)(C(C)C)NC(=O)[C@@H]2CCCN2C(=O)[C@H](CCc2cc(F)c(C(F)(F)F)c(F)c2)NC(=O)CN(C)C(=O)[C@@H]1Cc1ccc(C(F)(F)F)cc1", "note": "[PP0792] ([NMeL]I[Sar][Aze][NPrPhe(4-CF3)][Sar][hPhe(3,5-F2-4-CF3)]P[αMeV][NMeGly(cPent)][NMeD]-Morpholide; lactam N-11)", "values": [{"measurement": "NRAS/KRAS (ratio of KD value with respect to GDP-bound NRAS wild-type protein to KD value with respect to KRAS)", "setting": "[1]; KD ratio NRAS/KRAS, SPR", "value": "C (A compound having a KD ratio of 0.1 or more and less than 3 is denoted as C)"}, {"measurement": "HRAS/KRAS (ratio of KD value with respect to GDP-bound HRAS wild-type protein to KD value with respect to KRAS)", "setting": "[2]; KD ratio HRAS/KRAS, SPR", "value": "B (a compound having 3 or more and less than 10 is denoted as B)"}]}
{"smiles": "CC[C@H](C)[C@@H]1NC(=O)[C@H](CC(C)C)N(C)C(=O)C[C@@H](C(=O)N2CCCCC2)N(C)C(=O)[C@H](C2CCCC2)N(C)C(=O)C2(CCCC2)NC(=O)[C@@H]2CCCN2C(=O)[C@H](CCc2cc(F)c(C(F)(F)F)c(F)c2)NC(=O)CN(C)C(=O)[C@H](Cc2ccc(C(F)(F)F)cc2)N2CCCC[C@@H](C2=O)N(C)C(=O)CN(C)C1=O", "note": "[PP0572]", "values": [{"measurement": "NRAS/KRAS (ratio of KD value with respect to GDP-bound NRAS wild-type protein to KD value with respect to KRAS)", "setting": "[1]; KD ratio NRAS/KRAS, SPR", "value": "B (a compound having 3 or more and less than 10 is denoted as B)"}, {"measurement": "HRAS/KRAS (ratio of KD value with respect to GDP-bound HRAS wild-type protein to KD value with respect to KRAS)", "setting": "[2]; KD ratio HRAS/KRAS, SPR", "value": "B (a compound having 3 or more and less than 10 is denoted as B)"}]}
{"smiles": "CC[C@H](C)[C@@H]1NC(=O)[C@H](CC(C)C)N(C)C(=O)C[C@@H](C(=O)N2CCOCC2)N(C)C(=O)[C@H](C2CCCC2)N(C)C(=O)C2(CCCC2)NC(=O)[C@@H]2CCCN2C(=O)[C@H](CCc2ccc(C(F)(F)F)c(Cl)c2)NC(=O)CN(C)C(=O)[C@H](Cc2ccc(C(F)(F)F)cc2)N(CCCOC)C(=O)CN(C)C(=O)CN(C)C1=O", "note": "[PP0133] ([NMeL]I[Sar][Sar][X42][Sar][hPhe(3-Cl-4-CF3)]P[Ac5c][NMeGly(cPent)][NMeD]-Morpholide; lactam N-11)", "values": [{"measurement": "NRAS/KRAS (ratio of KD for GDP-bound NRAS wild-type to KD for KRAS)", "setting": "[1]; KD ratio NRAS/KRAS, SPR", "value": "B (a compound having 3 or more and less than 10 is denoted as B)"}, {"measurement": "HRAS/KRAS (ratio of KD for GDP-bound HRAS wild-type to KD for KRAS)", "setting": "[2]; KD ratio HRAS/KRAS, SPR", "value": "C (A compound having a KD ratio of 0.1 or more and less than 3 is denoted as C)"}]}
{"smiles": "CC[C@H](C)[C@@H]1NC(=O)[C@H](CC)N(C)C(=O)C[C@@H](C(=O)N(C)C)N(C)C(=O)[C@H](C2CCCC2)N(C)C(=O)C2(CC(C)(C)C2)NC(=O)[C@@H]2C[C@H](C)CN2C(=O)[C@H](CCc2cc(F)c(C(F)(F)F)c(F)c2)NC(=O)CN(C)C(=O)[C@H](Cc2ccc(C)cc2)N2CC/C=C\\C[C@@H](C2=O)N(C)C(=O)CN(C)C1=O", "note": "[PP1856]", "values": [{"measurement": "NRAS/KRAS (ratio of KD value for NRAS to KD value for KRAS)", "setting": "[1]; [3]", "value": "A (a compound having 10 or more and less than 20 is denoted as A)"}, {"measurement": "HRAS/KRAS (ratio of KD value for HRAS to KD value for KRAS)", "setting": "[2]; [4]", "value": "A (a compound having 10 or more and less than 20 is denoted as A)"}]}
{"smiles": "CCC(CC)[C@H]1C(=O)N(C)[C@H](C(=O)N(C)C)CC(=O)N(C)[C@@H](COC)C(=O)N[C@@H]([C@@H](C)CC)C(=O)N(C)CC(=O)N(C)[C@H]2C/C=C\\CCN(C2=O)[C@@H](Cc2ccc(C(F)(F)F)cc2)C(=O)N(C)CC(=O)N[C@@H](CCc2cc(F)c(C(F)(F)F)c(F)c2)C(=O)N2CC3(CC3)C[C@H]2C(=O)NC2(CC(C)(C)C2)C(=O)N1C", "note": "[PP2961]", "values": [{"measurement": "NRAS/KRAS (ratio of KD value with respect to GDP-bound NRAS wild-type protein to KD value with respect to KRAS)", "setting": "[1]; KD ratio NRAS/KRAS, class symbols", "value": "AA (a compound having 20 or more is denoted as AA)"}, {"measurement": "HRAS/KRAS (ratio of KD value with respect to GDP-bound HRAS wild-type protein to KD value with respect to KRAS)", "setting": "[2]; KD ratio HRAS/KRAS, class symbols", "value": "A (a compound having 10 or more and less than 20 is denoted as A)"}]}
{"smiles": "CCO[C@@H]1C[C@H]2C(=O)NC3(CCCC3)C(=O)N(C)[C@@H](C3CCCC3)C(=O)N(C)[C@H](C)CC(=O)N(C)[C@@H](CC(C)C)C(=O)N[C@@H]([C@@H](C)CC)C(=O)N(C)CC(=O)N(C)[C@H]3C/C=C\\CCN(C3=O)[C@@H](Cc3ccc(C(F)(F)F)cc3)C(=O)N(C)CC(=O)N[C@@H](CCc3cc(F)c(C(F)(F)F)c(F)c3)C(=O)N2C1", "note": "[PP1096]", "values": [{"measurement": "NRAS/KRAS (ratio of KD value with respect to NRAS to KD value with respect to KRAS)", "setting": "[1]; [3]", "value": "B (a compound having 3 or more and less than 10 is denoted as B)"}, {"measurement": "HRAS/KRAS (ratio of KD value with respect to HRAS to KD value with respect to KRAS)", "setting": "[2]; [4]", "value": "B (a compound having 3 or more and less than 10 is denoted as B)"}]}
